This is an account of results in publication PMC4938538, “Inhibition of Pig Phosphoenolpyruvate Carboxykinase Isoenzymes by 3-Mercaptopicolinic Acid and Novel Inhibitors” (PLoS ONE, 2016).

For one assay, the target named is T1, PEPCK-C 139Leu (Sus scrofa, UniProt A0A4X1UM84, M139L).
T1 construct: made in house; host or cells: Escherichia coli BL21 (DE3)
T1 sequence (A0A4X1UM84 1-622 M139L): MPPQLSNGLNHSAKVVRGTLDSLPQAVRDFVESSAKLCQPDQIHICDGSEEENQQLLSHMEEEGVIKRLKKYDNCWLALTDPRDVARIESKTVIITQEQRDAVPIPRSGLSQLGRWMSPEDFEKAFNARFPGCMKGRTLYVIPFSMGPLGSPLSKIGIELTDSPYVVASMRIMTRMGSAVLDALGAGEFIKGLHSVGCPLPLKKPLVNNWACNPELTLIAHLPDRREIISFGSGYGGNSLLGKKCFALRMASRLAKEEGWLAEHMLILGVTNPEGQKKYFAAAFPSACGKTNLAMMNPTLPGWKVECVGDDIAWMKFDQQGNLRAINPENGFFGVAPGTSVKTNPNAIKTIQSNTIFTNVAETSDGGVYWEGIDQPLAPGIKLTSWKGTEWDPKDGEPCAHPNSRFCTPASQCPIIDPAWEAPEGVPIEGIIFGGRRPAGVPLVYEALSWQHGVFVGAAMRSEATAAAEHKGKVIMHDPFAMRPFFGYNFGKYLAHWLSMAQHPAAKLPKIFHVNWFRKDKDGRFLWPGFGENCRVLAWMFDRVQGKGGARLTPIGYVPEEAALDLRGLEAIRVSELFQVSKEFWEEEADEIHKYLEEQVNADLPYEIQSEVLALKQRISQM
Nature of the assay: Near-UV circular dichroism spectra. The format is binding, pig. The settings on record: 50 μM compound, 20 μM PEPCK-C (compound 1 also 150 μM, data not shown). How it is done:
(§1) PEPCK-C was diluted to 20 μM in a 20 mM HEPES pH 7.4 buffer, containing 1 mM TCEP. 50 μM 3-MP, compound 1 or compound 2 were added to the PEPCK-C solution. Readings were performed at 25°C in a 0.1 cm cuvette from 320 to 250 nm in a Chirascan CD-spectrophotometer (Applied Photophysics, UK). CD spectra were calculated after subtracting the blank which contained all the components except PEPCK-C.
A general note: Circular dichroism is widely used to follow secondary structure.

Assay [1] concerns the target T2, PEPCK-C 139Met (Sus scrofa, UniProt A0A4X1UM84).
T2 sequence (A0A4X1UM84 1-622): T1 sequence (A0A4X1UM84 1-622 M139L) with L139M
Nature of the assay: Near-UV circular dichroism spectra. Type of assay: binding, pig. Also on record: His-tag (cleaved yes); made in house; host or cells: Escherichia coli BL21 (DE3). The settings on record: 50 μM compound, 20 μM PEPCK-C (compound 1 also 150 μM, data not shown). As to the method: as §1

The target of the next assay is T3, wild type PEPCK-C (Sus scrofa, UniProt A0A4X1UM84).
T3 construct: made in house; host or cells: Escherichia coli BL21 (DE3)
T3 sequence (A0A4X1UM84 1-622): T1 sequence (A0A4X1UM84 1-622 M139L) with L139M
Nature of the assay: IC50 determination, PEPCK-C activity in the direction of OAA synthesis (coupled spectrophotometric assay with malate dehydrogenase). Type of assay: biochemical, pig. The settings on record: saturating substrate concentration. As to the method:
(§2) PEPCK-C activity was measured in an UNICAM 500 spectrometer (UNICAM Analytical Systems, UK) with coupled spectrophotometric assays using pyruvate kinase and lactate dehydrogenase as auxiliary enzymes in PEP synthesis reaction and malate dehydrogenase in the reverse reaction.
Variable inhibitor concentrations of 0–200 μM were also used. Assays were initiated by PEPCK-C addition. Rates were calculated by measuring the decreasing slope of absorbance at 340 nm after subtracting the rate of spontaneous NADH oxidation.
3-MP inhibition assays were fitted in double reciprocal plots. To describe the mixed non-competitive inhibition, the double reciprocal equation can be written as: 1/v = Km/Vmax (1+[I]/Ki) 1/[S]+1/Vmax (1+[I]/αKi) (2)

Assay [2] has as its target T2, PEPCK-C 139Met. Briefly: Compound 1 and 2 inhibition assays in PEP synthesis direction (Vmax and Km). Also on record: made in house; host or cells: Escherichia coli BL21 (DE3). The settings on record: for Vmax (GTP) in presence of inhibitor / Vmax (OAA) in presence of inhibitor: 50 μM inhibitor; for Vmax (OAA) in presence of inhibitor: OAA variable substrate. The format is biochemical, pig. How it is done:
as §2
3-MP inhibitions assays in OAA synthesis direction were carried out as described before with the exception of the variable substrate (50–600 μM for PEP and 10–100 μM for GDP) and 3-MP concentration (10–100 μM). Assays in the direction of PEP synthesis were performed in 1 mL of a 100 mM HEPES buffer pH 7.4, containing 10 mM DTT, 0.2 mM MnCl2, 2 mM MgCl2, 1 mM GTP or 400 μM OAA, 1 mM ADP, 0.2 mM NADH, PEPCK-C and 5 units of each pyruvate kinase and lactate dehydrogenase. Reactions were initiated by addition of OAA. Variable substrates were 5–50 μM OAA or 25–500 μM GTP and 3-MP concentrations were between 10–400 μM. Rates were calculated by measuring the decreasing slope at 340 nm of absorbance after subtracting the rate of spontaneous NADH oxidation in the case of OAA synthesis or the rate of the blank which contained all the components of the mix but PEPCK-C in the case of PEP synthesis.
Compound 1 and 2 inhibitions assays were performed in PEP synthesis direction as described in 3-MP inhibition assays. Variable substrates were 10–100 μM OAA or 25–500 μM GTP, inhibitors concentrations were around IC50 value (100 μM compound 1 or 50 μM compound 2) and 20 units of each pyruvate kinase and lactate dehydrogenase were also added.
Data from compound 1 and 2 inhibition assays were represented in double reciprocal plots to calculate Vmax and Km values using GraphPad Prism 3.03 software.

Changes are numbered by the printed parent chain. Values joined by “and” are separate entries in the source; they are usually repeats but may differ in a detail not shown here. Identical values can stand only once.

Turning to `O=C(O)c1ncccc1S` [3-MP, 3-mercaptopicolinic acid], the “Change of near-UV CD spectrum of the enzyme” value (“Change” for short) at PEPCK-C 139Leu and on PEPCK-C 139Met [1] was “modify the CD spectra of both isoenzymes” in each case. For the same molecule, the IC50 against wild type PEPCK-C is 65 ± 6 µM.

`CC(=NNC(=S)NC1CCCCC1)c1sc(-c2cccs2)nc1C` [compound 1, N1-cyclohexyl-2-{1-[4-methyl-2-(2-thienyl)-1,3-thiazol-5-yl]ethylidene}hydrazine-1-carbothiamide]: the “Change” value on PEPCK-C 139Leu and at PEPCK-C 139Met [1] was “no clear differences in the enzyme CD spectra” in each case. Besides, at PEPCK-C 139Met [2] (GTP variable substrate), the “Vmax (GTP) in presence of inhibitor” value was 7.8 µmol/min/mg and 7.8 ± 0.5 µmol/min/mg. Besides, the “Vmax (OAA) in presence of inhibitor” value at PEPCK-C 139Met [2] was 6.7 µmol/min/mg and 6.7 ± 1.4 µmol/min/mg. On wild type PEPCK-C, this molecule showed an IC50 of 134 ± 4 µM.

Regarding `Cn1nc(-c2ccc(C=NNC(=O)c3ccc(Cl)cc3Cl)s2)cc1C(F)(F)F` [compound 2, N'1-({5-[1-methyl-5-(trifluoromethyl)-1H-pyrazol-3-yl]-2-thienyl}methylidene)-2,4-dichlorobenzene-1-carbohydrazide], the “Change” value on PEPCK-C 139Leu is on record as “more markedly compound 2 modify the CD spectra of both isoenzymes”. Moreover, on PEPCK-C 139Met [1], the “Change” value is “more markedly compound 2 modify the CD spectra of both isoenzymes”. Also, at PEPCK-C 139Met [2] (GTP variable substrate), the “Rise of Km value for GTP in presence of the inhibitor” value is on record as “threefold” and the “Vmax (GTP) in presence of inhibitor” value came out at 5.9 ± 2.3 µmol/min/mg. For the same molecule, the “Vmax (OAA) in presence of inhibitor” value on PEPCK-C 139Met [2] was 4.6 µmol/min/mg and 4.6 ± 1.4 µmol/min/mg. Half-maximal inhibition against wild type PEPCK-C (IC50) was put at 30 ± 2 µM.

For orientation: IC50 means the concentration at which inhibition is half-maximal. Low readings indicate greater potency, high ones weaker potency.
